In ChEMBL document CHEMBL1201862, “PubChem BioAssay data set” (2004):
Active and inactive are the calls of the source. Rule as the data show it: actives have a measured IC50 and inactives only a lower limit.

Target: Envelope glycoprotein gp160 (Human immunodeficiency virus 1, UniProt Q6QLK5)
Assay: inhibitors of HIV fusion peptide binding, primary screen, biochemical, uHTS, fluorescence dequenching (AID 1986)

Envelope glycoprotein gp160, sequence (Q6QLK5 whole entry, the tested form may be a part): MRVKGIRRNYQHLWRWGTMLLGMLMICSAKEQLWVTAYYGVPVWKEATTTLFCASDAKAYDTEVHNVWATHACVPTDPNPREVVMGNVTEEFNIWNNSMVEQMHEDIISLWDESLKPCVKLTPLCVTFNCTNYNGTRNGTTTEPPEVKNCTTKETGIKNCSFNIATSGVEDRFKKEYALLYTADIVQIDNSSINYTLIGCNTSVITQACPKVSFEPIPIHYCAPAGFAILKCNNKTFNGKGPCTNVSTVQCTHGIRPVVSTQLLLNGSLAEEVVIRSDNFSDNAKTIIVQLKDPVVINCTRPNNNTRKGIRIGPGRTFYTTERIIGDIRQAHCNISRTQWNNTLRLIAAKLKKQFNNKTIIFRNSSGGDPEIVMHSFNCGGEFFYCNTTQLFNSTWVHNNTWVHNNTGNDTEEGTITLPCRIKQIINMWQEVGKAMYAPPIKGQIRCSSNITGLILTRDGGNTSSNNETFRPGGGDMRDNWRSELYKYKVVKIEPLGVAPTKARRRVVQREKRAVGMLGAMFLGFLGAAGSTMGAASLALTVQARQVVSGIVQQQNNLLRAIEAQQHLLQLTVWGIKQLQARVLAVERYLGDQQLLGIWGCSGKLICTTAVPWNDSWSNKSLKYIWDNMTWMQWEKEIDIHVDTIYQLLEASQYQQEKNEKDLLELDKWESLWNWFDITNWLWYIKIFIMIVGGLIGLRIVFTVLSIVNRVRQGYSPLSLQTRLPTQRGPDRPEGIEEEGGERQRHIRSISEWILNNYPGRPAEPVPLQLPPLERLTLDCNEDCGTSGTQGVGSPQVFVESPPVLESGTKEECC

CCOc1cc(/C=C2/C(=N)N3C(=NC2=O)SN=C3S(=O)(=O)CC)ccc1OC(=O)c1ccco1
IC50: 19.3 µM (active)
